Like-named read-outs stand apart in the source and are kept apart here.
What was measured:
HIV = conditions: prior art statement; cited from earlier work
[1] = prior art statement; cited from earlier work
[2] = preliminary results of Biochemical Pharmacology 38, 869-74 (1989); cited from earlier work
HIV (LAV Strain) = test: Antiviral activity in HIV-infected A301 (Alex) cells, read out by reverse transcriptase level; type: cell-based; conditions: Human immunodeficiency virus 1, 168 h
Experimental: This procedure is a modification of a procedure initially described by Chen et al., Biochemical Pharmacology, 36 (24), 4361-4362 (1987).
(§1) A301 (Alex) cells are pre-infected with a constant amount of HIV (LAV Strain) for three hours at 37°C. Test compounds and AZT (control) are added to the infected cells in two, three or five-fold dilutions, diluted out four places for screening and eight places for confirmation in 96 well plates. Unless mentioned the highest concentration is […]. The test plates are incubated in CO₂ at 37°C for seven days (incubation time depends on virus pool titer) with a partial medium/sample change on day four of the incubation period. Uninfected A301 cells with sample dilutions, but without virus, are used to evaluate cytotoxicity.
Reverse transcriptase levels are assayed at the end of the incubation period as follows, to determine if antiviral activity is present.
[…] of medium from the HIV infected Alex cells is added to […] of 3.2% Triton X-100. This solution is incubeted for 30 minutes at 37°C, then […] of 4X assay mix is added to it. The 4X assay mix contains [³H]TTP, poly(A).oligo(dT), potassium chloride, magnesium chloride, dithiothreitol, and Tris-HCl buffer, pH8.0. […] The radioactivity remaining on the 3MM paper is quantitated by scintillation counter, and corresponds to reverse transcriptase level.

[3] = Cytotoxicity in uninfected A301 cells; type: cell-based; conditions: human; uninfected A301 cells with sample dilutions, without virus; read-out: Cell Toxicity Partial
Experimental: as §1, with “Test compounds and AZT (control) are added to the infected cells in two, three or five-fold dilutions, diluted out four places for screening and eight places for confirmation in 96 well plates.” left out

Uninfected A301 cells = test: Cytotoxicity in uninfected A301 cells; type: cell-based; conditions: uninfected A301 cells with sample dilutions, without virus
Experimental: as §1, with “Test compounds and AZT (control) are added to the infected cells in two, three or five-fold dilutions, diluted out four places for screening and eight places for confirmation in 96 well plates.” left out

SMILES	antiviral activity [2]	MCC at 168 h [3]	Cell Toxicity Complete (Uninfected A301 cells)	other results
[N-]=[N+]=N[C@]1(CO)O[C@@H](n2ccc(N)nc2=O)[C@H](O)[C@@H]1O [4'-azidocytidine]				anti-HIV activity (HIV): devoid of anti-HIV activity; cytotoxicity [1]: cytotoxic
[N-]=[N+]=N[C@H]1C[C@H](n2cc(Cl)c(=O)[nH]c2=O)O[C@@H]1CO [5-chloro-substituted-3'-azido-2',3'-dideoxyuridine]	potent antiviral activity			
O=c1[nH]c(=O)n([C@H]2C[C@H](F)[C@@H](CO)O2)cc1Cl [5-chloro-substituted-3'-fluoro-2',3'-dideoxyuridine]	potent antiviral activity			
[N-]=[N+]=N[C@]1(CO)O[C@@H](n2cc(Cl)c(=O)[nH]c2=O)C[C@@H]1O [A, 1-(4-azido-2-deoxy-β-D-erythro-pentofuranosyl)-5-chloro-2,4-dioxopyrimidine]		1 mM	>1000 µM	EC50 (HIV (LAV Strain); A301 (Alex) cells pre-infected with HIV (LAV Strain), seven days incubation, reverse transcriptase level, read-out: EC50): 56 nM
Cc1cn([C@H]2C[C@H](N=[N+]=[N-])[C@@H](CO)O2)c(=O)[nH]c1=O [control, 3'-azidothymidine]		> 0.04 mM	>40 µM	EC50 (HIV (LAV Strain)): 5 nM

— patent EP0457326A1, “Antiviral agents” (SYNTEX (U.S.A.) INC., priority 1990, dated 1991)
